Experimental data as given in US7947688B2, “N-[3-(3-substituted-pyrazolo[1,5-a]pyrimidin-7-yl)phenyl]-sulfonamides, and compositions, and methods related thereto” (Ferrer Internacional, S.A., priority 2003, dated 2011).

Key:
male CD1 mice = assay: Predictive sedation-hypnosis test in mice (motor activity, crossings); format: in vivo; settings: single equimolecular intraperitoneal dose, crossings over 30 min after dosing (first 5 min discarded) versus control
Experimental: • In vivo determination of predictive sedative-hypnotic action.
The in vivo effects of these compounds were assessed by a predictive sedation-hypnosis test in mice (D. J. Sanger et al., Eur. J. Pharmacol., 313, 35-42, 1996; and G. Griebel et al., Psychopharmacology, 146, 205-213, 1999). Groups of 5-8 male CD1 mice, weighing 22-26 g at the time of test, were used. The test compounds were administered in single equimolecular intraperitoneal doses, suspended in 0.25% agar with one drop of Tween in a volume of 10 ml/kg. Control animals received the vehicle alone. Using an Actisystem DAS16 (Panlab, S. L., Spain) the crossings (number of counts) were recorded for each mouse at 5-min intervals during a period of 30 minutes after dosing. The inhibition percentage of crossings of treated animals versus control animals (the first 5 min were discarded) was calculated.

SMILES | melting point [°C] | % Motor Activity Inhibition (male CD1 mice) [%]
CN(c1cccc(-c2ccnc3c(C#N)cnn23)c1)S(C)(=O)=O [Example 2, N-[3-(3-cyano-pyrazolo[1,5-a]pyrimidin-7-yl)-phenyl]-N-methyl-methanesulfonamide] | 193 to 195 | 71.39
CN(c1cccc(-c2ccnc3c(C(=O)c4cccs4)cnn23)c1)S(C)(=O)=O [Example 3, N-methyl-N-{3-[3-(thiophene-2-carbonyl)-pyrazolo[1,5-a]pyrimidin-7-yl]-phenyl}-methanesulfonamide] | 169 to 170 | 93.58
